Measurements from publication PMC4163472, “Crystal Structure of Deinococcus radiodurans RecQ Helicase Catalytic Core Domain: The Interdomain Flexibility” (BioMed Research International, 2014).

Biological target: T1, DrRecQ helicase catalytic core (Deinococcus radiodurans, UniProt Q9RUU2)
T1 construct: gene DR_1289; residues 5-517 seen in the complex (296-300 not visible); monomer
T1 sequence (Q9RUU2 1-517): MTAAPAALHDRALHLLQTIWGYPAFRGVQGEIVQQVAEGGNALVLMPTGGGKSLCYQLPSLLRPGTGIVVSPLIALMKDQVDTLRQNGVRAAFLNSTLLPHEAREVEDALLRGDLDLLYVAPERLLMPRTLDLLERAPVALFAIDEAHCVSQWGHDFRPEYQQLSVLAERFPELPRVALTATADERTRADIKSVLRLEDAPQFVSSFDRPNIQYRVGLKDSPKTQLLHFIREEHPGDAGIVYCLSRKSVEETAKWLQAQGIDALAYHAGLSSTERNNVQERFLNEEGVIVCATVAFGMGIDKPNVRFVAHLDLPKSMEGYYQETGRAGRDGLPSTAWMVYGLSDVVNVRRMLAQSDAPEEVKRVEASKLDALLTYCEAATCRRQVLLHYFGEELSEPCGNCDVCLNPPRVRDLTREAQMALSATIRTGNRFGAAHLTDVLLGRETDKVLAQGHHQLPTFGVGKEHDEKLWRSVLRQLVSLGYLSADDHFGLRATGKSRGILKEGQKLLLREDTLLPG
Assay: X-ray crystallography, […] A
Format: binding
Conditions: crystallised in 0.1 M imidazole pH 7.2, 16% PEG 20K; nucleotide pocket of D1 domain (motifs 0 and I); no magnesium added; authors suggest ADP arose from ATP hydrolysed during crystallization

Q: `Nc1ncnc2c1ncn2[C@@H]1O[C@H](COP(=O)(O)OP(=O)(O)O)[C@@H](O)[C@H]1O` [ADP] was tested. Which “X-ray crystallography, 2.9 A” value did it give?
A: ADP is bound with extensive interactions with the protein
